Values quoted from earlier work as cited in patent publication US20230181603A1, “METHODS OF TREATING CANCER WITH METABOLITE ADJUSTMENTS” (priority 2021, published 2023).

Experiments:
[1] = test system: glial precursor cell; conditions: slice cultures
[2] = test system: hyaluronidase

hyaluronidase inhibitor effective concentration [2]: low-micromolar range
SMILES: CCCCCCCCCCCCCCCC(=O)OC[C@H](O)[C@H]1OC(=O)C(O)=C1O [Ascorbyl palmitate]
inhibition of glial precursor cell migration [1]: potently inhibits
